“Also recorded” adds a separate entry of the source. A value given as a limit tells only on which side of the number the result lay.

We go through two compounds from US11685733B2, “Compounds for treating Rac-GTPase mediated disorder” (Children's Medical Center Corporation, priority 2018, dated 2023).

Data set [1] has as its system P12 cells with NRAS G12D mutation.
Data set [2] concerns sensitive leukemic cell lines. Kind of data set: Induction of apoptosis in leukemic cell lines.
Data set [3] is described as follows: Relative weight of mice during the efficacy study. The conditions noted are these: 10 mg/kg and 100 mg/kg, normalized to average weight before treatment. The class given is in vivo. As to the method:
(§1) Bioluminecence imaging (BLI) analysis was performed by treating a mouse model (8 mice) of human leukemia (P12 xenograft) with two different doses of Compound 1 (i.e., 10 and 100 mg/kilogram of body weight) using the formulation obtained in Example 2. P12 cells were transduced with a vector encoding for Luciferase and mCherry as a fluorescent marker. Treatment was started 5 days after inoculation of the cell line, and carried out by oral gavage for 18 days twice a day. Mice were imaged twice a week to obtain a quantification of the disease burden.

For another data set, the system named is Rac. Kind of data set: Pull down assay of Rac activation with Western blot. The format is cell-based, human. The conditions noted are these: SEM cell line. As to the method:
Further, a biochemical pull down assay using the SEM cell line was performed to confirm specific inhibition of Rac activation by Compound 1 as indicated by disruption of the interaction between Rac and GTPase. The assay initially required treatment of cells followed by pull down and analysis with Western blot. The cells were first starved in serum free media for 2 hours. They were then re-suspended in serum-containing medium. NSC23766 and Compound 1 were added at desired concentrations. Following incubation for the desired length of time, the cells were pelleted and lysed with Magnesium Lysis Buffer (Millipore Mg^2+ lysis/wash buffer).

For data set [4], the system named is mononuclear bone marrow cells from WT mice. Kind of data set: Colony forming unit assay (CFU assay) for toxicity. The class given is cell-based. As to the method: The formulation obtained in Example 2 was used for evaluating the toxicity of Compound 1 in a colony forming unit assay (CFU assay), which was performed by plating mononuclear bone marrow cells from WT mice in methylcellulose media supplemented with different doses of Compound 1, NSC23766, and DMSO. The number of colonies formed in each condition was scored 7 days after plating.

In a further data set the test system is P12 xenograft. Description: Anti-leukemia activity in mouse model of human leukemia (bioluminescence imaging, mCherry cells in bone marrow). The format is in vivo, mice. The following applies: 10 mg/kg and 100 mg/kg. As to the method:
as §1

Another data set relates to SEM cell line. Kind of data set: Flow based Annexin V apoptosis and cell death assay. The arrangement: species or system human. The following applies: Annexin V kit. From the text: Compound 1 was further analyzed for its effect on cell apoptosis and cell death using a flow based assay using Annexin V kit.
In data set [5] the test system is SEM, RS4,11, and P12 leukemia cell lines. Kind of data set: Inhibition of proliferation in three leukemia cell lines. The class given is cell-based. The following applies: Homo sapiens; range over SEM, RS4,11 and P12 cell lines. The protocol: Compound 1 was assayed for inhibition of proliferation in three leukemia cell lines, i.e., (1) SEM, (2) RS4,11, and (3) P12 by […]. The cells for the proliferation assay were spun down and re-suspended. The cell suspension was then divided and Compound 1 was added in desired concentrations and subsequently plated. Following an incubation period, the […] (Promega CellTiter 96® Aqueous Non-Radioactive Cell Proliferation Assay) was added and allowed to incubate. The absorbance is subsequently measured at 490 nm using a plate reader.

Consider `CCc1ccc(CN(C)C(=O)CCc2nnc(CCc3c[nH]c4ccccc34)o2)cc1` [Compound 5], for which the “PDE6D/ARL2/3-dependent trafficking of RAS” value in data set [1] is on record as “affected PDE6D/ARL2/3-dependent trafficking of RAS”. Further, the apoptosis entry in data set [2] is reported as “induced apoptosis”.
Consider `O=C(CCc1nnc(CCc2c[nH]c3ccccc23)o1)N1CCN(c2ccc(F)cc2)CC1` [Compound 1, 1-[4-(4-fluorophenyl)piperazin-1-yl]-3-{5-[2-(1H-indol-3-yl)ethyl]-1,3,4-oxadiazol-2-yl}propan-1-one], for which, in data set [3], the “relative weight of the mice” value is reported as “relatively stable over the course of treatment”. Moreover, in the data set with Rac, the “total Rac levels” value is listed as “no significant effect on total Rac levels”. Further, the Rac activation entry in the data set with Rac (pull down) is listed as “significant reduction of Rac activation; also recorded: dose dependent reduction of Rac activation”. Moreover, in data set [4] (colonies scored 7 days after plating), the “concentration up to which no toxicity toward clonogenic progenitor bone marrow cells was seen” value was around 100 µM. Besides, in data set [4] (fold the IC50), the “concentration without toxicity relative to the IC50” value is listed as above 100 fold. Besides, the “mCherry positive cells in the bone marrow” value with P12 xenograft (fold change to the vehicle group) is given as “effectively inhibit proliferation”. In addition, the “bioluminescence (disease burden)” value in the data set on P12 xenograft (oral gavage twice a day for 18 days) is “significantly reduced the bioluminescence”. Moreover, the “cell apoptosis and cell death” value in the data set with SEM cell line was “caused cells apoptosis and cell death in the SEM cell line in a dose-dependent manner”. In addition, the IC50 in data set [5] was in the range of 0.8 to 7 µM.
